For the test, the system named is remaining 398 kinases. Description: SelectScreen Broad Assay Panel, summary. The following applies: 1 µM. In kind it is biochemical. The method, then: The in vitro kinase selectivity of NU5455 was determined using the SelectScreen Broad Assay Panel (Thermo Fisher Scientific) involving activity and binding assays (Supplemental Table 1). […] Class IA PI3Ks were measured using the p85α subunit.
Kinase [ATP] % Assay Kinase [ATP] % Assay Kinase [ATP] % Assay Kinase [ATP] % Assay
DNA-PK Km app 98.3 Z LATS2 n/a 4.7 L KIT D820E n/a 1.3 L GSK3B (GSK3 beta) Km app -2.5 Z
PIK3C3 (hVPS34) Km app 85.9 A PRKCZ (PKC zeta) Km app 4.7 Z GRK1 n/a 1.3 L BMPR2 n/a -2.5 L
PIK3C2B (PI3K-C2 beta) 10 28.9 A FGFR1 Km app 4.7 Z BRSK2 n/a 1.2 L CDC42 BPB (MRCKB) Km app -2.5 Z
SNF1LK2 Km app 26.6 Z MINK1 Km app 4.6 Z NUAK1 (ARK5) Km app 1.2 A AMPK (A2/B2/G2) n/a -2.6 L
HCK Km app 18.0 Z CSF1R (FMS) Km app 4.3 Z CDK9/cyclin K n/a 1.0 L PRKG1 Km app -2.7 Z
NEK2 Km app 17.8 Z CSNK1G3 (CK1 gamma 3) Km app 4.2 Z NUAK2 n/a 1.0 L KIT T670E n/a -2.8 L
ALK Km app 17.3 Z STK32C (YANK3) n/a 4.2 L CDK2/cyclin O n/a 0.9 L ERBB4 (HER4) Km app -2.8 Z
FGFR3 K650M n/a 16.5 L STK22D (TSSK1) Km app 4.2 Z CAMKK2 (CaMKK beta) n/a 0.9 L PLK4 n/a -2.8 L
SIK3 n/a 16.1 L TAOK3 (JIK) n/a 4.2 L FGFR3 Km app 0.9 Z GRK7 Km app -3.0 Z
LYN A Km app 15.2 Z RPS6KA4 (MSK2) Km app 4.2 Z ULK2 n/a 0.9 L MAPKAPK2 Km app -3.1 Z
BMPR1B (ALK6) n/a 14.5 L PTK2B (FAK2) Km app 4.2 Z KIT D816V n/a 0.9 L FGFR4 Km app -3.1 Z
INSRR (IRR) Km app 14.1 Z CLK2 Km app 4.1 Z CAMK1 (CaMK1) 10 0.8 A CASK n/a -3.1 L […]

Data on one molecule can be found in paper PMC6934184, “Selective DNA-PKcs inhibition extends the therapeutic index of localized radiotherapy and chemotherapy” (The Journal of Clinical Investigation, 2019).

In the case of `CN(C(=O)CN1CCOCC1)c1ccc2sc3c(-c4cccc5c(=O)cc(N6CC7CCC(C6)O7)oc45)cccc3c2c1` [NU5455], the “inhibition in the majority of the remaining 398 kinases” value is “less than 10%”.
